Data: the NIST ThermoML archive (doi:10.1021/je800998u)

Experiment: molar heat capacity at constant pressure
Conditions: 101.33 kPa, Small (less than 1 g) adiabatic calorimetry

CC(C)COCC(C)C [diisobutyl ether]
Conditions	molar heat capacity at constant pressure [J/K/mol]
140.67 K, Crystal 2	147.66
141.68 K, Crystal 2	148.47
142.69 K, Crystal 2	150.03
143.69 K, Crystal 2	151.09
144.7 K, Crystal 2	152.64
145.71 K, Crystal 2	153.6
146.72 K, Crystal 2	154.66
147.73 K, Crystal 2	156
148.74 K, Crystal 2	157.59
149.74 K, Crystal 2	159.31
150 K, Crystal 2	158.9
150.75 K, Crystal 2	160.48
151.76 K, Crystal 2	162.28
152.76 K, Crystal 2	163.63
153.77 K, Crystal 2	165.04
154.77 K, Crystal 2	166.47
155.77 K, Crystal 2	168.44
156.77 K, Crystal 2	170.7
157.77 K, Crystal 2	172.77
158.77 K, Crystal 2	174.55
159.76 K, Crystal 2	176.89
160 K, Crystal 2	171.1
160.22 K, Crystal 2	177.95
161.05 K, Crystal 2	179.83
161.87 K, Crystal 2	182.1
162.69 K, Crystal 2	184.81
163.5 K, Crystal 2	188
164.29 K, Crystal 2	190.62
165.08 K, Crystal 2	194.31
165.86 K, Crystal 2	198.38
166.64 K, Crystal 2	203.33
167.41 K, Crystal 2	209.11
168.16 K, Crystal 2	214.73
168.9 K, Crystal 2	223.05
169.63 K, Crystal 2	234.85
170.31 K, Crystal 2	282.57
170.71 K, Crystal 1	172.2
170.71 K, Crystal 2	184.2
171.96 K, Crystal 1	180.54
172.76 K, Crystal 1	180.42
173.54 K, Crystal 1	180.19
174.34 K, Crystal 1	181.2
175.14 K, Crystal 1	182.92
175.93 K, Crystal 1	183.75
176.72 K, Crystal 1	185.64
177.5 K, Crystal 1	187.45
178.28 K, Crystal 1	189.66
179.05 K, Crystal 1	192.53
179.81 K, Crystal 1	195.2
180 K, Crystal 1	193.8
190.4 K, Crystal 1	218
190.4 K, Liquid	241.1
200 K, Liquid	243.7
205.51 K, Liquid	245.31
207.14 K, Liquid	245.51
208.62 K, Liquid	246.05
210 K, Liquid	246.3
210.09 K, Liquid	246.27
211.57 K, Liquid	246.56
213.04 K, Liquid	247.06
214.48 K, Liquid	247.32
215.95 K, Liquid	247.78
217.42 K, Liquid	248.16
218.89 K, Liquid	248.58
220 K, Liquid	248.9
220.35 K, Liquid	248.91
221.82 K, Liquid	249.16
223.28 K, Liquid	249.85
224.74 K, Liquid	250.34
226.2 K, Liquid	250.85
227.65 K, Liquid	251.29
229.11 K, Liquid	251.85
230 K, Liquid	251.9
230.56 K, Liquid	252.2
232.02 K, Liquid	252.69
233.46 K, Liquid	252.85
234.91 K, Liquid	253.44
236.36 K, Liquid	253.83
237.75 K, Liquid	254.25
239.2 K, Liquid	254.81
240 K, Liquid	255
240.64 K, Liquid	255.42
242.08 K, Liquid	255.9
243.52 K, Liquid	256
244.96 K, Liquid	256.76
246.39 K, Liquid	256.99
247.83 K, Liquid	257.45
249.26 K, Liquid	257.99
250 K, Liquid	258.3
250.69 K, Liquid	258.39
252.11 K, Liquid	258.84
253.54 K, Liquid	259.49
254.96 K, Liquid	259.95
256.39 K, Liquid	260.62
257.8 K, Liquid	260.96
259.22 K, Liquid	261.75
260 K, Liquid	261.8
260.56 K, Liquid	261.97
261.97 K, Liquid	262.87
